Measured values reported in patent publication US20060128757A1, “Pyridine derivatives useful as cyclooxygenase inhibitor” (Astellas Pharma Inc., priority 2001, published 2006).
Like-named read-outs stand apart in the source and are kept apart here.

Legend:
[1] = tested on: stomachs (gastric lesions) of rats; test: Gastric ulcerogenic activity in rats; type: in vivo, Male Sprague-Dawley rats; conditions: oral, 5 h before autopsy, rats fasted 24 h
Procedure: Male Sprague-Dawley rats were used after a 24 h fast. Drugs were orally administered to groups of 10 rats 5 h before autopsy. The stomachs were macroscopically inspected and scored as follows: 0, no evidence of gastric lesions; 1, spotty submucosal hemorrhage or appearance of erosion; 3, widespread adherence of blood and large areas of submucosal hemorrhage or one to four small ulcers; 4, more than four small ulcers or one large ulcer; 5, numerous large ulcers.

COX-II = target: T1, COX-II (Homo sapiens, UniProt P35354); test: Whole blood assay for COX-II (LPS-induced PGE2 production); type: cell-based
T1 construct: lipopolysaccharide for 24 hr at 37° C. for induction of COX-II; endogenous in cells; host or cells: heparinized fresh human whole blood from volunteers, LPS-stimulated for 24 hr (PGE2 read-out)
T1 sequence (P35354 18-604): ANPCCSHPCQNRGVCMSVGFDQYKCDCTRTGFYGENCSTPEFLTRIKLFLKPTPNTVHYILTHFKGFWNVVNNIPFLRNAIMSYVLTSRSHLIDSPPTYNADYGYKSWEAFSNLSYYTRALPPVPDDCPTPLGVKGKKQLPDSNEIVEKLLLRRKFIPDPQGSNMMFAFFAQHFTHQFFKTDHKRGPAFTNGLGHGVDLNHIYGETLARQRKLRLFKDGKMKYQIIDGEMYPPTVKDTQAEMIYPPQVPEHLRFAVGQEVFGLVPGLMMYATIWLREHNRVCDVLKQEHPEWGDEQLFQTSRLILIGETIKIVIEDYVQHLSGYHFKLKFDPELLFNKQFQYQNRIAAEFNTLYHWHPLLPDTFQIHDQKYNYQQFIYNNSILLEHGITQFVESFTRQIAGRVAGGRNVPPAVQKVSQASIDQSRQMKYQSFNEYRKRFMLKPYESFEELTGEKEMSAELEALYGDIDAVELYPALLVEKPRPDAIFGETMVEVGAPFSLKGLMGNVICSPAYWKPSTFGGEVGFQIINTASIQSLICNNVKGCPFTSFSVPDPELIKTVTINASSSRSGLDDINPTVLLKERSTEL
Procedure: Fresh blood was collected in heparinized tubes by syringe from volunteers with consent. The subjects had no apparent inflammatory conditions and had not taken any medication for at least 7 days prior to blood collection. 500 μl aliquots of human whole blood were incubated with either 2 μl dimethyl sulfoxide vehicle or 2 μl of a test compound at final concentrations for 15 min at 37° C. This was followed by incubation of the blood with 10 μl of 5 mg/ml lipopolysaccharide for 24 hr at 37° C. for induction of COX-II. Appropriate PBS treatments (no LPS) were used as blanks. At the end of the incubation, the blood was centrifuged at 6000×g for 5 min at 4° C. to obtain plasma. A 100 μl aliquot of plasma was mixed with 400 μl methanol for protein precipitation. The supernatant was obtained by centrifuging at 6000×g for 5 min at 4° C. and was assayed for prostagrandin E2 (PGE2) using a radioimmunoassay kit after conversion of PGE2 to its methyl oximate derivative according to the manufacturer's procedure. For a test compound, the results were expressed as percent inhibition of PGE2 production relative to control incubations containing dimethyl sulfoxide vehicle. The data were analyzed by that a test compound at the indicated concentrations was changed log value and was applied simple linear regression. IC50 value was calculated by least squares method.

COX-I = target: T2, COX-I (Homo sapiens, UniProt P23219); test: Whole blood assay for COX-I (TXB2 production); type: cell-based
T2 construct: Fresh blood was collected by syringe without anticoagulants from volunteers with consent; endogenous in cells; host or cells: fresh human whole blood from volunteers, left to clot (TXB2 read-out)
Procedure: Fresh blood was collected by syringe without anticoagulants from volunteers with consent. The subjects had no apparent inflammatory conditions and had not taken any medication for at least 7 days prior to blood collection. 500 μl aliquots of human whole blood were immediately incubated with 2 μl of either dimethyl sulfoxide vehicle or a test compound at final concentrations for 1 hr at 37° C. to allow the blood to clot. Appropriate treatments (no incubation) were used as blanks. […] The blood was centrifuged at 6000×g for 5 min at 4° C. to obtain serum. A 100 μl aliquot of serum was mixed with 400 μl methanol for protein precipitation. The supernatant was obtained by centrifuging at 6000×g for 5 min at 4° C. and was assayed for TXB2 using an enzyme immunoassay kit according to the manufacturer's procedure. For a test compound, the results were expressed as percent inhibition of thromboxane B2 (TXB2) production relative to control incubations containing dimethyl sulfoxide vehicle. The data were analyzed by that a test compound at the indicated concentrations was changed log value and was applied simple linear regression. IC50 value was calculated by least squares method.

[2] = tested on: Stretching responses in mice; test: Stretching test (acetic acid i.p.); type: in vivo, Male ddY mice; conditions: 10 mg/Kg orally, acetic acid i.p. 1 h after drug
Procedure: Male ddY mice were used after a 24 h fast. Drugs were orally administered to groups of 10 mice. Mice were injected intraperitoneally (i.p.) with 0.2 ml/10 g of 0.6% acetic acid 1 h after the drug administration and then placed singly in a plastic animal cage. Stretching responses, defined as constriction of the abdomen with stretching of the hind limbs, were counted for 10 min from 3 min after the i.p. injection of acetic acid.

[3] = tested on: Adjuvant Arthritis in Rats; test: Analgesic activity: effect on adjuvant arthritis in rats (Randall-Selitto); type: in vivo, Lewis rats; conditions: ratio of threshold pressure of treated vs non-treated rats
[4] = LPS 24 hr, read-out: COX-II IC50
[5] = 1 hr at 37° C., read-out: COX-I IC50

T2 sequence (P23219 24-599): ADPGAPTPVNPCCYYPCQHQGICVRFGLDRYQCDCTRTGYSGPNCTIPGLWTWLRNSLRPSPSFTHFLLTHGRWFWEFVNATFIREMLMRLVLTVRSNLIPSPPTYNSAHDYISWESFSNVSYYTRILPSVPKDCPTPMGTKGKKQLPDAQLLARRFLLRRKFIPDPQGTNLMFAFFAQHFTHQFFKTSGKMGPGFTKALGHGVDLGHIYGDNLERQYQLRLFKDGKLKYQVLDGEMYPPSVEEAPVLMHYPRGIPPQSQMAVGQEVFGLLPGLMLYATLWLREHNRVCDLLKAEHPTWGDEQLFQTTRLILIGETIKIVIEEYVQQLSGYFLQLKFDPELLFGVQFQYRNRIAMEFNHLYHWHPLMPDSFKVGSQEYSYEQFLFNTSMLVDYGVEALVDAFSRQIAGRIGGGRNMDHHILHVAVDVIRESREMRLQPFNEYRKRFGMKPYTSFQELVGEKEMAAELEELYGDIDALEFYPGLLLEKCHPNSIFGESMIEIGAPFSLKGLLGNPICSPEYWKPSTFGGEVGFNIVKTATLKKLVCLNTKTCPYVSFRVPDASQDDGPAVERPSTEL

For COc1ccc2c(c1)c(CC(=O)O)c(C)n2C(=O)c1ccc(Cl)cc1 [I, Indomethacin], the “Gastric ulcerogenic activity (Non-toxic dose)” value [1] was 1 mg/kg.
In the case of O=C(O)Cc1ccccc1Nc1c(Cl)cccc1Cl [J, Diclofenac], the “Gastric ulcerogenic activity (Non-toxic dose)” value [1] is reported as 3.2 mg/kg.
In the case of CC(C(=O)O)c1cccc(C(=O)c2ccccc2)c1 (centres unmarked) [G, Ketoprofen], the “Gastric ulcerogenic activity (Non-toxic dose)” value [1] is reported as 3.2 mg/kg.
For COc1ccc(-c2cc(C#N)c(OC)nc2-c2ccc(OC)cc2)cc1 [Example 6, 2-methoxy-5-(4-methoxyphenyl)-6-(4-methoxyphenyl)-pyridine-3-carbonitrile], the IC50 (COX-II; [4]) was > 1 µM and the IC50 (COX-I; [5]) was < 0.1 µM.
In the case of COc1ccc(-c2noc(CC(=O)O)c2-c2ccc(OC)cc2)cc1 [H, Mofezolac], the “Gastric ulcerogenic activity (Non-toxic dose)” value [1] is reported as 10 mg/kg.
In the case of COc1ccc(-c2cc(C#N)c(Cl)nc2-c2ccc(OC)cc2)cc1 [Example 1-(3), 2-chloro-5-(4-methoxyphenyl)-6-(4-methoxyphenyl) pyridine-3-carbonitrile], the IC50 (COX-II; [4]) is reported as > 1 µM and the IC50 (COX-I; [5]) is reported as < 0.1 µM.
With COc1ccc(-c2cc(C#N)cnc2-c2ccc(OC)cc2)cc1 [Example 4, 5-(4-methoxyphenyl)-6-(4-methoxyphenyl)-pyridine-3-carbonitrile] the melting point was 107 to 108 °C, the IC50 (COX-II; [4]) was > 1 µM and the IC50 (COX-II; Table 1, read-out: Whole blood assay (IC50: μM) COX-II) was 1.9 µM. For the same compound, the IC50 (COX-I; [5]) was < 0.1 µM, the IC50 (COX-I; Table 1, read-out: Whole blood assay (IC50: μM) COX-I) was 0.017 µM and the “Inhibiting activity in stretching test” value [2] was 48%. The “Gastric ulcerogenic activity (Non-toxic dose)” value [1] was >100 mg/kg, the “Analgesic activity in adjuvant arthritis -3.2 mg/Kg-” value ([3]; 3.2 mg/Kg, 2 hr after administration) was 1.57 and the “The coefficient of analgesic” value ([3]; Dose 3.2 mg/kg, pain threshold 2 hr after administration, ratio of 1.5 = effective dose) was >1.5.
